# Experimental data reported in the supplement of paper PMC4862054.
# Where “and” joins values, the source holds several entries; their conditions need not be identical. Equal values may be shown once.
# Legend:
# Settings in all cases: incubation time: 72 h
# BT-474 [1] = experiment: normalised viability (% of control), CellTiter-Blue; higher = more viable cells (about 100 = DMSO control)
# Experimental: (§1)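 DSRT, CellTiter-Blue viability, 72 h incubation. Signal is normalised to DMSO and benzethonium chloride controls. Value is the normalised response at dose 3.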
# BT-549 [2] = experiment: as above
# Experimental: as §1
# DU-4475 [3] = experiment: as above
# Experimental: as §1
# HCC1937 [4] = experiment: as above
# Experimental: as §1
# MDA-MB-231 [5] = experiment: as above
# Experimental: as §1
# MDA-MB-453 [6] = experiment: as above
# Experimental: as §1
# MFM-223 [7] = experiment: as above
# Experimental: as §1
# SK-BR-3 [8] = experiment: as above
# Experimental: as §1
# BT-474 [9] = experiment: drug sensitivity score (DSS), CellTiter-Glo (DSS (AUC-based score)); higher = stronger drug effect (viability inhibition or cytotoxicity); extreme values may be limits of the assay
# How it was run: (§2)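 Breast cancer cell lines (20 µl suspension) were seeded into 384-well plates holding compound at 5 concentrations in 10-fold steps over a compound-specific 10,000-fold range, then incubated 72 h. CellTox Green fluorescence (485/520 nm) was read first, then CellTiter-Glo luminescence after 10 min at room temperature. Each plate was normalised to 0.1 % DMSO and a positive kill control. The drug sensitivity score was calculated from the area under the fitted dose-response curve.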
# BT-549 [10] = experiment: as above
# How it was run: as §2
# CAL-120 = experiment: as above
# How it was run: as §2
# CAL-148 = experiment: as above
# How it was run: as §2
# CAL-51 = experiment: as above
# How it was run: as §2
# CAL-85-1 = experiment: as above
# How it was run: as §2
# DU-4475 [11] = experiment: as above
# How it was run: as §2
# HCC1143 = experiment: as above
# How it was run: as §2
# HCC1599 = experiment: as above
# How it was run: as §2
# HCC1937 [12] = experiment: as above
# How it was run: as §2
# HDQ-P1 = experiment: as above
# How it was run: as §2
# Hs578T = experiment: as above
# How it was run: as §2
# MCF-10A = experiment: as above
# How it was run: as §2
# MDA-MB-231 [13] = experiment: as above
# How it was run: as §2
# MDA-MB-436 = experiment: as above
# How it was run: as §2
# MDA-MB-453 [14] = experiment: as above
# How it was run: as §2
# MDA-MB-468 = experiment: as above
# How it was run: as §2
# MFM-223 [15] = experiment: as above
# How it was run: as §2
# SK-BR-3 [16] = experiment: as above
# How it was run: as §2
Structure (SMILES),normalised viability (BT-474 [1]; 100 nM),normalised viability (BT-549 [2]; 100 nM),normalised viability (DU-4475 [3]; 10 nM),normalised viability (HCC1937 [4]; 100 nM),normalised viability (MDA-MB-231 [5]; 100 nM),normalised viability (MDA-MB-453 [6]; 10 nM),normalised viability (MFM-223 [7]; 100 nM),normalised viability (SK-BR-3 [8]; 100 nM),drug sensitivity score (BT-474 [9]),drug sensitivity score (BT-549 [10]),drug sensitivity score (CAL-120),drug sensitivity score (CAL-148),drug sensitivity score (CAL-51),drug sensitivity score (CAL-85-1),drug sensitivity score (DU-4475 [11]),drug sensitivity score (HCC1143),drug sensitivity score (HCC1599),drug sensitivity score (HCC1937 [12]),drug sensitivity score (HDQ-P1),drug sensitivity score (Hs578T),drug sensitivity score (MCF-10A),drug sensitivity score (MDA-MB-231 [13]),drug sensitivity score (MDA-MB-436),drug sensitivity score (MDA-MB-453 [14]),drug sensitivity score (MDA-MB-468),drug sensitivity score (MFM-223 [15]),drug sensitivity score (SK-BR-3 [16]),normalised viability (BT-474 [1]; 10 nM) [%],normalised viability (BT-549 [2]; 10 nM) [%],normalised viability (DU-4475 [3]; 1 nM) [%],normalised viability (HCC1937 [4]; 10 nM) [%],normalised viability (MDA-MB-231 [5]; 10 nM) [%],normalised viability (MDA-MB-453 [6]; 1 nM) [%],normalised viability (MFM-223 [7]; 10 nM) [%],normalised viability (SK-BR-3 [8]; 10 nM) [%]
Nc1cccc2c1CN(C1CCC(=O)NC1=O)C2=O (configuration not stated) [Lenalidomide],115% and 94.3%,92.2% and 101%,103% and 112%,92.2% and 102%,88.9% and 87.4%,93% and 103%,91.3% and 90.2%,73.6% and 88.2%,0,0,2.82e-05,0,0,0,0,0,0,0,0,0,0,0,0,0,0,0,0,,,,,,,,
O=C1c2c(O)ccc(O)c2C(=O)c2c(NCCNCCO)ccc(NCCNCCO)c21 [Mitoxantrone],,,,,,,,,0,0,0,3.82,2.13,0,2.92,0.675,0,0,0.578,0,0,0,5.91,0,0,0,0,98.2,87.7,102,46.6,72.5,84.8,85.9,75.6
Nc1ccccc1NC(=O)c1ccc(CNc2nccc(-c3cccnc3)n2)cc1 [Mocetinostat],95.1%,81.6%,91%,79.2%,84.3%,94.2%,80.7%,83.9%,6.06,8.43,6.33,7.02,8.93,6.32,9,5.67,5.88,6.31,4.52,5.95,1.13,6.07,5.31,9.7,8.18,5.07,8.95,,,,,,,,
C[C@]12C=CC(=O)C=C1CC[C@@H]1[C@@H]2[C@@H](O)C[C@@]2(C)[C@H]1CC[C@]2(O)C(=O)CO [Prednisolone],102%,104%,101%,94%,114%,105%,97%,60.8%,0,0,5.1,0,0,0,0,0,0,0,2.08,0,0,0,0,0,0,0,0,,,,,,,,
C[C@]12O[C@H](C[C@]1(O)CO)n1c3ccccc3c3c4c(c5c6ccccc6n2c5c31)CNC4=O [Lestaurtinib],,,,,,,,,3.87,7.26,7.69,0,0.729,4.38,8.11,2.04,7.24,2.31,2.59,3.6,8.64,2.14,3.31,5.26,11.8,4.3,8.99,127,106,109,79.5,110,98.7,107,91.3
CO[C@@H](C(=O)N1Cc2[nH]nc(NC(=O)c3ccc(N4CCN(C)CC4)cc3)c2C1)c1ccccc1 [Danusertib],80.8%,102%,91%,99.9%,79%,79.6%,44%,62.4%,5.14,10.7,6.46,3.57,9.2,0,5.98,5.41,0,0,3.68,3.96,12,5.32,4.68,0,18.3,14.3,0,,,,,,,,
